Laboratory results: patent publication US8586555B2, “Immunomodulatory compositions, formulations, and methods for use thereof” (Dynavax Technologies Corporation, priority 2001, dated 2013)

Assays:
Assay type in all cases: cell-based
[1] = system: human peripheral blood mononuclear cells (hPBMC); experiment: human PBMC assay, Example 4 (oligos and PLGA premixed 15 minutes); conditions: for IFN-α Mean / IFN-γ Mean: mean of donors 28044, 28045
Experimental: (§1) Hexameric oligonucleotides were tested for immunomodulatory activity alone and complexed with lactic acid/glycolic acid copolymer microcarrier beads using a human peripheral blood mononuclear cells (hPBMC) assay. Peripheral blood was collected from healthy volunteers by venipuncture using heparinized syringes. Blood was layered onto a FICOLL® (Amersham Pharmacia Biotech) cushion and centrifuged. hPBMCs, located at the FICOLL® interface, were collected, then washed twice with cold phosphate buffered saline (PBS). The cells were resuspended and cultured in 48 well plates at 2×10^6 cells/mL at 37° C. in RPMI 1640 with 10% heat-inactivated human AB serum plus 50 units/mL penicillin, 50 μg/mL streptomycin, 300 μg/mL glutamine, 1 mM sodium pyruvate, and 1×MEM non-essential amino acids (NEAA).
(§2) Oligonucleotides were tested as single agents, or in combination with PLGA microspheres (unmodified or cationic). All oligonucleotides contained 100% phosphorothioate linkages and were tested at 20 μg/ml. The PLGA microcarriers were used at 250 μg/ml. When oligos were tested with PLGA microcarriers, the oligo and the microcarriers were added at the same time to the culture. The cells were cultured in the in the presence of test samples for 24 hours, then cell-free medium was collected from each well and assayed for IFN-γ and IFN-α concentration. Two different oligonucleotides were used as controls: a first oligonucleotide known to have immunostimulatory activity (a 22mer oligonucleotide containing an ISS (“ISS+,” 5′-[…]-3′(SEQ ID NO:2)) and a second oligonucleotide of similar sequence but lacking immunostimulatory activity (“ISS−,” 5′-[…]-3′ (SEQ ID NO:1)). SAC (PANSORBIN® CalBiochem, 1/5000 dilution) and a untreated culture were used as additional positive and negative controls, respectively. SAC contains Staph. aureus (Cowan I) cell material. All samples were assayed in duplicate.
(§3) IFN-γ and IFN-α were assayed using CYTOSCREEN™ ELISA kits from BioSource International, Inc., according to the manufacturer's instructions.
Additional hexameric and pentameric oligonucleotides were tested for immunomodulatory activity in the PBMC assay. Oligonucleotides 6-6 (5′-TCGAGA-3′), 6-8 (5′-GTCGAC-3′), 6-9 (5′-GTCGTT-3′), 6-2 (5′-TCGTTT-3′), 6-3 (5′-TTCGTT-3′), 6-4 (5′-TTTCGT-3′), 5-1 (5′-TCGTC-3′), and 5-2 (5′-TCGTT-3′) were tested alone or in combination with cationic PLGA as described in Example 3 except that the oligos and PLGA were premixed for 15 minutes room temperature before addition to the cultures. The test articles were assayed using PBMC isolated from donors 28044 and 28045.

[2] = system: human peripheral blood mononuclear cells (hPBMC); experiment: human PBMC assay, Example 5 (96 well plates, premixed); conditions: for IFN-α Mean / IFN-γ Mean: mean of donors 28051-28054
Experimental: as §1, §2, §3
(§4) The immunomodulatory activity of the oligonucleotides used in Examples 3 and 4 was confirmed with the human PBMC assay using PBMCs from an additional four donors (donors 28051-28054). Oligonucleotides were tested alone or in combination with cationic PLGA as described in Example 3, except that 96 well plates were used instead of 48 well plates and the oligonucleotides were premixed with the cationic microspheres at room temperature for 15 minutes before they were added to the culture, rather than being added simultaneously to the culture.

[3] = system: human peripheral blood mononuclear cells (hPBMC); experiment: human PBMC assay, Example 7 (oligo 20 μg/ml, cPLGA 100 μg/ml); conditions: for IFN-α Mean / IFN-γ Mean: mean of donors 28115-28118
Experimental: as §1, §2, §3, §4
Additional oligonucleotides, some incorporating modified bases, were tested for immunomodulatory activity in the human PBMC assay. Oligonucleotides were tested alone or in combination with cPLGA as described in Example 5. The oligonucleotides were premixed with the cationic PLGA microspheres for 15 minutes at room temperature at concentrations of 20 μg/ml and 100 μg/ml, respectively.

[4] = system: human peripheral blood mononuclear cells (hPBMC); experiment: human PBMC assay, Example 6
Experimental: as §1, §2, §3, §4
Additional oligonucleotides were tested for immunomodulatory activity in the human PBMC assay. Oligonucleotides were tested alone or in combination with cPLGA as described in Example 5.
Additional oligonucleotides were tested using hPBMCs from volunteers 154-157 using the same assay. Results, which are shown in Table 7, confirm the activity of oligonucleotides fitting the formula 5′-X1TCGX2-3′, where the oligonucleotide is a 3-6mer, X1 is zero or one nucleotide and X2 is zero to three nucleotides.

[5] = system: human peripheral blood mononuclear cells (hPBMC); experiment: human PBMC assay, Example 3 (oligo and PLGA added at the same time, 48 well plates); conditions: for IFN-α / IFN-γ: oligo 20 μg/ml, PLGA 250 μg/ml, 24 hours
Experimental: as §1, §2, §3

[6] = delivered as IMO/MC complexes (cPLGA)

## 5′-TCGTT-3′ [Oligonucleotide 5-2]
[1]; donor 28044
  IFN-α: 0 pg/mL
  IFN-γ: 4 pg/mL
[1]; donor 28045
  IFN-α: 0 pg/mL
  IFN-γ: 0 pg/mL
[1]
  IFN-α Mean: 0 pg/mL
  IFN-γ Mean: 2 pg/mL
[2]; delivered alone
  immunomodulatory activity: inactive
[2]; [6]
  immunomodulatory activity: highly active
[2]; donor 28051
  IFN-α: 1 pg/mL
  IFN-γ: 1 pg/mL
[2]; donor 28052
  IFN-α: 5 pg/mL
  IFN-γ: 0 pg/mL
[2]; donor 28053
  IFN-α: 0 pg/mL
  IFN-γ: 0 pg/mL
[2]; donor 28054
  IFN-α: 2 pg/mL
  IFN-γ: 1 pg/mL
[2]
  IFN-α Mean: 2 pg/mL
  IFN-γ Mean: 0 pg/mL
[3]; combined with cPLGA
  immunomodulatory activity: active in two of four donors
[3]; donor 28115
  IFN-α: 0 pg/mL
  IFN-γ: 8 pg/mL
[3]; donor 28116
  IFN-α: 0 pg/mL
  IFN-γ: 4 pg/mL
[3]; donor 28117
  IFN-α: 0 pg/mL
  IFN-γ: 8 pg/mL
[3]; donor 28118
  IFN-α: 0 pg/mL
  IFN-γ: 0 pg/mL
[3]
  IFN-α Mean: 0 pg/mL
  IFN-γ Mean: 5 pg/mL

## 5′-TCGTTT-3′ [Oligonucleotide 6-2]
[1]; donor 28044
  IFN-α: 0 pg/mL
  IFN-γ: 30 pg/mL
[1]; donor 28045
  IFN-α: 0 pg/mL
  IFN-γ: 0 pg/mL
[1]
  IFN-α Mean: 0 pg/mL
  IFN-γ Mean: 15 pg/mL
[2]; delivered alone
  immunomodulatory activity: inactive
[2]; [6]
  immunomodulatory activity: highly active
[2]; donor 28051
  IFN-α: 0 pg/mL
  IFN-γ: 1 pg/mL
[2]; donor 28052
  IFN-α: 2 pg/mL
  IFN-γ: 0 pg/mL
[2]; donor 28053
  IFN-α: 10 pg/mL
  IFN-γ: 3 pg/mL
[2]; donor 28054
  IFN-α: 0 pg/mL
  IFN-γ: 1 pg/mL
[2]
  IFN-α Mean: 3 pg/mL
  IFN-γ Mean: 1 pg/mL
[4]; delivered as oligonucleotide/MC complex (cPLGA)
  immunomodulatory activity: highly active
[4]; donor 28075
  IFN-α: 36 pg/mL
  IFN-γ: 8 pg/mL
[4]; donor 28076
  IFN-α: 6 pg/mL
  IFN-γ: 18 pg/mL
[4]; donor 28077
  IFN-α: 66 pg/mL
  IFN-γ: 5 pg/mL
[4]; donor 28078
  IFN-α: 101 pg/mL
  IFN-γ: 14 pg/mL
[4]; mean of donors 28075-28078
  IFN-α Mean: 53 pg/mL
  IFN-γ Mean: 11 pg/mL
[3]; donor 28115
  IFN-α: 0 pg/mL
  IFN-γ: 3 pg/mL
[3]; donor 28116
  IFN-α: 0 pg/mL
  IFN-γ: 0 pg/mL
[3]; donor 28117
  IFN-α: 0 pg/mL
  IFN-γ: 5 pg/mL
[3]; donor 28118
  IFN-α: 0 pg/mL
  IFN-γ: 0 pg/mL
[3]
  IFN-α Mean: 0 pg/mL
  IFN-γ Mean: 2 pg/mL

## 5′-TGACTGTGAACCTTAGAGATGA-3′ (DNA, all phosphorothioate, methylation of C not given here) [ISS−, reference compound]
[5]; donor 28033
  IFN-α: 0 pg/mL
  IFN-γ: 3 pg/mL
[5]; donor 28034
  IFN-α: 31 pg/mL
  IFN-γ: 8 pg/mL
[5]; mean of donors 28033, 28034
  IFN-α Mean: 15 pg/mL
  IFN-γ Mean: 5 pg/mL
[1]; donor 28044
  IFN-α: 0 pg/mL
  IFN-γ: 410 pg/mL
[1]; donor 28045
  IFN-α: 0 pg/mL
  IFN-γ: 51 pg/mL
[1]
  IFN-α Mean: 0 pg/mL
  IFN-γ Mean: 231 pg/mL
[2]; donor 28051
  IFN-α: 0 pg/mL
  IFN-γ: 5 pg/mL
[2]; donor 28052
  IFN-α: 3 pg/mL
  IFN-γ: 2 pg/mL
[2]; donor 28053
  IFN-α: 1 pg/mL
  IFN-γ: 3 pg/mL
[2]; donor 28054
  IFN-α: 5 pg/mL
  IFN-γ: 2 pg/mL
[2]
  IFN-α Mean: 2 pg/mL
  IFN-γ Mean: 3 pg/mL
[4]; donor 28075
  IFN-α: 41 pg/mL
  IFN-γ: 15 pg/mL
[4]; donor 28076
  IFN-α: 23 pg/mL
  IFN-γ: 15 pg/mL
[4]; donor 28077
  IFN-α: 54 pg/mL
  IFN-γ: 12 pg/mL
[4]; donor 28078
  IFN-α: 27 pg/mL
  IFN-γ: 16 pg/mL
[4]; mean of donors 28075-28078
  IFN-α Mean: 36 pg/mL
  IFN-γ Mean: 15 pg/mL
[4]; mean of volunteers 154-157
  IFN-α Mean: 0 pg/mL
  IFN-γ Mean: 43 pg/mL
[4]; volunteer 154
  IFN-α: 0 pg/mL
  IFN-γ: 0 pg/mL
[4]; volunteer 155
  IFN-α: 0 pg/mL
  IFN-γ: 17 pg/mL
[4]; volunteer 156
  IFN-α: 0 pg/mL
  IFN-γ: 58 pg/mL
[4]; volunteer 157
  IFN-α: 0 pg/mL
  IFN-γ: 98 pg/mL
[3]; donor 28115
  IFN-α: 0 pg/mL
  IFN-γ: 20 pg/mL
[3]; donor 28116
  IFN-α: 0 pg/mL
  IFN-γ: 22 pg/mL
[3]; donor 28117
  IFN-α: 0 pg/mL
  IFN-γ: 334 pg/mL
[3]; donor 28118
  IFN-α: 0 pg/mL
  IFN-γ: 14 pg/mL
[3]
  IFN-α Mean: 0 pg/mL
  IFN-γ Mean: 98 pg/mL
